From ChEMBL document CHEMBL3137667, “[Drug-induced liver injury; fourteenth updated edition of the bibliographic database of liver injuries and related drugs]” (Gastroenterol Clin Biol, 2004) come the findings set out here.

Data set [1] can be described thus: Highest frequency of moderate liver toxicity observed during clinical trials, expressed as a percentage. [column '% BIOL' in source]. The settings on record: human.
A short description of data set [2]: Highest frequency of acute liver toxicity observed during clinical trials, expressed as a percentage. [column '% AIGUE' in source]. The conditions noted are these: human.
Data set [3] in a line: Presence of at least one case with successful reintroduction. [column 'REINT' in source]. The conditions noted are these: human.
Data set [4] in a line: Comments (NB not yet translated). [column 'COMMENTAIRES' in source]. The settings on record: human.
A short description of data set [5]: Times to onset, minimal and maximal, observed in the indexed observations. [column 'DELAI' in source]. The conditions noted are these: human.
For data set [6] the following is noted: human, serum.
For data set [7] the following is noted: human, serum. The source holds these as a separate data set.
For data set [8] the following is noted: human.
For data set [9] the following is noted: human. This is another data set of the same source.
For data set [10] the following is noted: human. This is another data set of the same source.
For data set [11] the following is noted: human, serum, 4383 h.
For data set [12] the following is noted: human. This is another data set of the same source.
For data set [13] the following is noted: human. This is another data set of the same source.
For data set [14] the following is noted: human. This is another data set of the same source.
For data set [15] the following is noted: human. The source holds these as a separate data set.
The conditions of data set [16]: human. This is another data set of the same source.
The conditions of data set [17]: human. This is another data set of the same source.
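Throughout, for Hepatotoxicity (association with vascular disease): count of indexed literature references reporting vascular liver injury in humans, e.g. peliosis hepatitis, hepatic veno-occlusive disease or Budd-Chiari syndrome.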
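Throughout, for Hepatotoxicity (benign tumour): value is a count of indexed literature references citing a benign tumour confirmed by histopathology.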
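Throughout, for Hepatotoxicity (choleostasis): human cholestatic liver injury, shown by histopathology or by peak ALT or AST elevation over alkaline phosphatase ratio below 2, value counts indexed literature reports.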
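Throughout, for Hepatotoxicity (chronic liver disease): chronic liver injury confirmed by histopathology or persistently raised serum aminotransferase activity beyond 6 months, value given as the count of indexed literature references.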
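Throughout, for Hepatotoxicity (cirrhosis): value is a count of indexed literature references reporting cirrhosis confirmed by histopathology.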
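Throughout, for Hepatotoxicity (cytolytic): human cytolytic liver injury, shown by histopathology or by a ratio above 5 of peak ALT or AST elevation to alkaline phosphatase elevation, value counts indexed references.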
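Throughout, for Hepatotoxicity (granulomatous hepatitis): value is a count of indexed literature references reporting granulomatous liver disease confirmed by histopathology.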
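Throughout, for Hepatotoxicity (malignant tumour): malignant tumour confirmed by histopathology, value gives the count of indexed literature references reporting it.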
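Throughout, for Hepatotoxicity (severe hepatitis): human clinical data: severe hepatitis, meaning potentially life-threatening liver failure or clinically observed cases, the value counts how many indexed literature references report it.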
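Throughout, for Hepatotoxicity (steatosis): steatosis confirmed by histopathology, value is the count of indexed references.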

As for `C[C@]12CCC(=O)C=C1CC[C@@H]1[C@@H]2CC[C@@]2(C)[C@H]1CC[C@]2(C)O` [METHYLTESTOSTERONE], the figures for the “Hepatotoxicity (moderate)” value in [1] and in data set [6] were 32% and 4, respectively. Besides, the “Hepatotoxicity (acute)” value in data set [2] came out at 0%; in [7], 30. Also, the “Hepatotoxicity (successful reintroduction)” value in [3] was “yes”. Also, the “Hepatotoxicity (comment)” value in [4] is listed as “ANGIOSARCOME CHOLESTASE_PROLONGEE CHOLANGITE #CBP PELIOSE”. Further, the “Hepatotoxicity (time to onset)” value in data set [5] amounted to 1 week - 24 years. Also, the “Hepatotoxicity (cytolytic)” value in data set [8] stood at 2. The “Hepatotoxicity (choleostasis)” value in data set [9] worked out at 21. In addition, the “Hepatotoxicity (severe hepatitis)” value in data set [10] came out at 1. For the same molecule, the “Hepatotoxicity (chronic liver disease)” value in data set [11] is listed as 0. In addition, the “Hepatotoxicity (cirrhosis)” value in [12] is on record as 2. Moreover, in data set [13], the “Hepatotoxicity (granulomatous hepatitis)” value stood at 0. The “Hepatotoxicity (association with vascular disease)” value in data set [14] came out at 4. Besides, in [15], the “Hepatotoxicity (steatosis)” value is on record as 0. In data set [16], the “Hepatotoxicity (malignant tumour)” value turned out to be 10. Besides, in [17], the “Hepatotoxicity (benign tumour)” value was 6.
Turning to `COCCc1ccc(OCC(O)CNC(C)C)cc1` (stereo not drawn) [METOPROLOL], the entries for the “Hepatotoxicity (moderate)” value in data set [1] and in data set [6] were 32% and 3, respectively. Moreover, the “Hepatotoxicity (acute)” value in data set [2] came to 0%; in [7], 1. Also, the “Hepatotoxicity (successful reintroduction)” value in data set [3] was “yes”. Besides, in data set [4], the “Hepatotoxicity (comment)” value was “ENCEPHALOPATHIE”. Also, the “Hepatotoxicity (time to onset)” value in [5] came out at 5 days - 17 days. Besides, in data set [8], the “Hepatotoxicity (cytolytic)” value is 1. In addition, the “Hepatotoxicity (choleostasis)” value in data set [9] stood at 0. For the same molecule, the “Hepatotoxicity (severe hepatitis)” value in data set [10] is listed as 0. Besides, in [11], the “Hepatotoxicity (chronic liver disease)” value is recorded as 0. In addition, the “Hepatotoxicity (cirrhosis)” value in data set [12] was 0. Further, the “Hepatotoxicity (granulomatous hepatitis)” value in data set [13] is given as 0. Further, in data set [14], the “Hepatotoxicity (association with vascular disease)” value amounted to 0. For the same molecule, the “Hepatotoxicity (steatosis)” value in [15] is recorded as 0. In data set [16], the “Hepatotoxicity (malignant tumour)” value was 0. In addition, the “Hepatotoxicity (benign tumour)” value in data set [17] came out at 0.
In the case of `CN1Cc2c(N)cccc2C(c2ccccc2)C1` (stereo not drawn) [NOMIFENSINE], the “Hepatotoxicity (moderate)” value was determined as 0% in [1] and 6 in [6]. Moreover, the entries for the “Hepatotoxicity (acute)” value in data set [2] and in [7] were 0% and 11, respectively. The “Hepatotoxicity (successful reintroduction)” value in data set [3] is “yes”. Besides, the “Hepatotoxicity (comment)” value in [4] is given as “RC/MIANSERINE”. The “Hepatotoxicity (time to onset)” value in data set [5] came out at 3 days - 3 months. Also, in data set [8], the “Hepatotoxicity (cytolytic)” value was found to be 8. Further, the “Hepatotoxicity (choleostasis)” value in data set [9] stood at 6. Moreover, the “Hepatotoxicity (severe hepatitis)” value in [10] is listed as 0. The “Hepatotoxicity (chronic liver disease)” value in data set [11] was found to be 0. The “Hepatotoxicity (cirrhosis)” value in data set [12] turned out to be 0. Besides, the “Hepatotoxicity (granulomatous hepatitis)” value in data set [13] was found to be 5. In addition, the “Hepatotoxicity (association with vascular disease)” value in [14] was 0. Further, in data set [15], the “Hepatotoxicity (steatosis)” value was 0. Also, the “Hepatotoxicity (malignant tumour)” value in data set [16] was 0. Besides, the “Hepatotoxicity (benign tumour)” value in [17] is 0.
As for `CCN1CCN(C(=O)N[C@@H](C(=O)N[C@@H]2C(=O)N3[C@@H]2SC(C)(C)[C@@H]3C(=O)O)c2ccccc2)C(=O)C1=O` [PIPERACILLIN], the “Hepatotoxicity (moderate)” value amounted to 25.6% in data set [1] and 14 in [6]. For the same molecule, the “Hepatotoxicity (acute)” value in [2] is 0.2%; in data set [7], 4. Besides, the “Hepatotoxicity (successful reintroduction)” value in data set [3] was “yes”. Besides, the “Hepatotoxicity (comment)” value in data set [4] is given as “CHOLANGITE”. The “Hepatotoxicity (time to onset)” value in data set [5] came to 2 weeks. Moreover, in data set [8], the “Hepatotoxicity (cytolytic)” value came out at 1. Besides, the “Hepatotoxicity (choleostasis)” value in [9] came out at 3. Further, the “Hepatotoxicity (severe hepatitis)” value in [10] came to 0. In addition, the “Hepatotoxicity (chronic liver disease)” value in data set [11] is 0. In [12], the “Hepatotoxicity (cirrhosis)” value worked out at 0. Also, the “Hepatotoxicity (granulomatous hepatitis)” value in data set [13] was found to be 0. In addition, the “Hepatotoxicity (association with vascular disease)” value in data set [14] was 0. For the same molecule, in [15], the “Hepatotoxicity (steatosis)” value was determined as 0. Further, the “Hepatotoxicity (malignant tumour)” value in [16] came out at 0. For the same molecule, the “Hepatotoxicity (benign tumour)” value in data set [17] is recorded as 0.
`CC[C@H](C)C(=O)O[C@H]1C[C@H](O)C=C2C=C[C@H](C)[C@H](CC[C@@H](O)C[C@@H](O)CC(=O)O)[C@H]21` [PRAVASTATIN]: the “Hepatotoxicity (moderate)” value is given as 22.5% in data set [1] (Liver) and 50 in data set [6]. Further, the “Hepatotoxicity (acute)” value in data set [2] (Liver) is reported as 1.1%; in data set [7], 7. Also, the “Hepatotoxicity (successful reintroduction)” value in data set [3] is on record as “yes”. For the same molecule, the “Hepatotoxicity (comment)” value in data set [4] is on record as “AC_ANTI-N/-MF”. The “Hepatotoxicity (time to onset)” value in data set [5] is 1 week - 20 weeks. Moreover, in data set [8], the “Hepatotoxicity (cytolytic)” value is 3. In [9], the “Hepatotoxicity (choleostasis)” value turned out to be 3. Besides, the “Hepatotoxicity (severe hepatitis)” value in data set [10] (Liver) is 0. Moreover, in data set [11], the “Hepatotoxicity (chronic liver disease)” value came out at 0. In addition, the “Hepatotoxicity (cirrhosis)” value in data set [12] is on record as 0. Moreover, the “Hepatotoxicity (granulomatous hepatitis)” value in [13] was 0. The “Hepatotoxicity (association with vascular disease)” value in [14] amounted to 0. Moreover, the “Hepatotoxicity (steatosis)” value in data set [15] is 1. Further, the “Hepatotoxicity (malignant tumour)” value in data set [16] was 0. Further, in [17], the “Hepatotoxicity (benign tumour)” value was 0.
For the molecule `Cc1ncc(CSSCc2cnc(C)c(O)c2CO)c(CO)c1O` [PYRITINOL], the entries for the “Hepatotoxicity (moderate)” value in [1] and in [6] were 1.4% and 1, respectively. Further, the “Hepatotoxicity (acute)” value amounted to 0% in data set [2] and 6 in data set [7]. Also, in data set [3], the “Hepatotoxicity (successful reintroduction)” value is listed as “yes”. In addition, the “Hepatotoxicity (comment)” value in data set [4] is listed as “CHOLESTASE_PROLONGEE”. Also, the “Hepatotoxicity (time to onset)” value in [5] is 1 day - 2 months. Further, the “Hepatotoxicity (cytolytic)” value in [8] was 1. Besides, the “Hepatotoxicity (choleostasis)” value in data set [9] worked out at 4. Moreover, the “Hepatotoxicity (severe hepatitis)” value in data set [10] amounted to 1. Further, the “Hepatotoxicity (chronic liver disease)” value in data set [11] amounted to 0. For the same molecule, the “Hepatotoxicity (cirrhosis)” value in [12] was 0. For the same molecule, the “Hepatotoxicity (granulomatous hepatitis)” value in [13] is 0. Besides, the “Hepatotoxicity (association with vascular disease)” value in data set [14] came out at 0. For the same molecule, the “Hepatotoxicity (steatosis)” value in data set [15] is on record as 1. Also, in [16], the “Hepatotoxicity (malignant tumour)” value came out at 0. Also, the “Hepatotoxicity (benign tumour)” value in data set [17] is listed as 0.
Regarding `CCN(CC)CCCC(C)Nc1c2ccc(Cl)cc2nc2ccc(OC)cc12` (stereo not drawn) [QUINACRINE], the “Hepatotoxicity (moderate)” value in data set [1] is 0%; in data set [6], 2. Besides, the “Hepatotoxicity (acute)” value came out at 0.1% in data set [2] and 4 in data set [7]. The “Hepatotoxicity (successful reintroduction)” value in data set [3] is “yes”. In addition, in data set [4], the “Hepatotoxicity (comment)” value was “CHOLANGITE”. Also, the “Hepatotoxicity (time to onset)” value in [5] is given as 1 week - 4 months. Further, the “Hepatotoxicity (cytolytic)” value in [8] amounted to 2. In [9], the “Hepatotoxicity (choleostasis)” value is listed as 1. Moreover, the “Hepatotoxicity (severe hepatitis)” value in data set [10] was determined as 1. For the same molecule, the “Hepatotoxicity (chronic liver disease)” value in data set [11] was found to be 0. In data set [12], the “Hepatotoxicity (cirrhosis)” value is given as 0. Besides, the “Hepatotoxicity (granulomatous hepatitis)” value in data set [13] worked out at 0. In addition, the “Hepatotoxicity (association with vascular disease)” value in data set [14] is 0. Moreover, the “Hepatotoxicity (steatosis)” value in data set [15] is recorded as 0. Moreover, in data set [16], the “Hepatotoxicity (malignant tumour)” value worked out at 0. Also, the “Hepatotoxicity (benign tumour)” value in [17] was found to be 0.
As to `CN[C@H]1CC[C@@H](c2ccc(Cl)c(Cl)c2)c2ccccc21` [SERTRALINE], the “Hepatotoxicity (moderate)” value was found to be 0.8% in [1] (Liver) and 4 in data set [6]. For the same molecule, the “Hepatotoxicity (acute)” value came to 0% in data set [2] (Liver) and 8 in data set [7]. For the same molecule, the “Hepatotoxicity (successful reintroduction)” value in [3] was “yes”. Besides, the “Hepatotoxicity (comment)” value in [4] is on record as “CHOLANGIOLITE”. In [5], the “Hepatotoxicity (time to onset)” value was 3 days - 5 months. The “Hepatotoxicity (cytolytic)” value in data set [8] (Liver) stood at 5. Moreover, the “Hepatotoxicity (choleostasis)” value in [9] (Liver) is listed as 4. Also, in data set [10] (Liver), the “Hepatotoxicity (severe hepatitis)” value is listed as 1. Further, the “Hepatotoxicity (chronic liver disease)” value in [11] amounted to 0. Moreover, in data set [12], the “Hepatotoxicity (cirrhosis)” value was 0. Moreover, the “Hepatotoxicity (granulomatous hepatitis)” value in data set [13] (Liver) is given as 0. Further, in data set [14], the “Hepatotoxicity (association with vascular disease)” value was determined as 0. Besides, in data set [15], the “Hepatotoxicity (steatosis)” value was 0. In data set [16], the “Hepatotoxicity (malignant tumour)” value was determined as 0. Moreover, in data set [17], the “Hepatotoxicity (benign tumour)” value is given as 0.
In the case of `CC(C(=O)O)c1ccc(C(=O)c2ccccc2)s1` (stereo not drawn) [TIAPROFENIC ACID], the entries for the “Hepatotoxicity (moderate)” value in data set [1] and in [6] were 3.8% and 1, respectively. Also, the “Hepatotoxicity (acute)” value was 0% in [2] and 3 in data set [7]. Besides, the “Hepatotoxicity (successful reintroduction)” value in data set [3] is “yes”. Moreover, the “Hepatotoxicity (comment)” value in data set [4] is listed as “RC/DICLOFENAC”. The “Hepatotoxicity (time to onset)” value in data set [5] is given as 3 weeks - 2 months. Further, the “Hepatotoxicity (cytolytic)” value in data set [8] amounted to 2. Further, the “Hepatotoxicity (choleostasis)” value in data set [9] worked out at 2. The “Hepatotoxicity (severe hepatitis)” value in data set [10] was 0. The “Hepatotoxicity (chronic liver disease)” value in data set [11] is recorded as 0. For the same molecule, in data set [12], the “Hepatotoxicity (cirrhosis)” value is reported as 0. Further, the “Hepatotoxicity (granulomatous hepatitis)” value in data set [13] turned out to be 0. In data set [14], the “Hepatotoxicity (association with vascular disease)” value stood at 0. Moreover, the “Hepatotoxicity (steatosis)” value in data set [15] turned out to be 0. Besides, the “Hepatotoxicity (malignant tumour)” value in [16] stood at 0. Moreover, the “Hepatotoxicity (benign tumour)” value in data set [17] came to 0.
